Tested on: Homo sapiens
Assay: Drug level in human serum at 10 mg/kg
Format: ADME, organism-based
Parameters: dose 10 mg/kg
Settings: in vivo

Compound: NNC(=O)c1ccncc1 [ISONIAZID]
- Drug uptake: 0.4 µg/mL
